Positions of bridges follow the written chain, without caps; N, C: chain ends. Residues, ends and D or L forms follow the SMILES beside them.
Experiments:
MRSA agr-III = MRSA agr-III (Staphylococcus aureus, UniProt O33590); test: MRSA agr-III P3::YFP fluorescent reporter assay; type: cell-based
MRSA agr-IV = MRSA agr-IV (Staphylococcus aureus, UniProt Q309Z2); test: MRSA agr-IV P3::YFP fluorescent reporter assay; type: cell-based; settings: for inhibition of MRSA agr-IV by synthetic AIP (in words): synthetic AIP dose response, 24 h fluorescence
MRSA strain LAC = test: Murine epicutaneous infection; type: in vivo, C57BL/6J mice
S. hominis agr-I = S. hominis agr-I P3::sGFP reporter assay (AH5009 + pCM41); type: cell-based, Staphylococcus hominis; settings: for S. hominis agr-I reporter growth (OD600): increasing concentrations of synthetic AIP; for effect on S. hominis agr-I fluorescent signal (in words): increasing doses of synthetic AIP, early signal
MRSA agr-II = MRSA agr-II (Staphylococcus aureus, UniProt O33587); test: MRSA agr-II P3::YFP fluorescent reporter assay; type: cell-based
USA300 MRSA (strain LAC) = test: Murine dermonecrosis model; type: in vivo, BALB/c mice; settings: 10 or 50 μg synthetic AIP-II in DMSO mixed with 1 × 10^8 CFU MRSA, intradermal; vs vehicle; n = 10 per group; dose dependent
MRSA agr-I = MRSA agr-I (Staphylococcus aureus, UniProt O07911); test: MRSA agr-I P3::YFP fluorescent reporter assay; type: cell-based
S. hominis agr-II = S. hominis agr-II P3::sGFP reporter assay (AH4553 + pCM41); type: cell-based, Staphylococcus hominis; settings: for S. hominis agr-II reporter growth (OD600): increasing concentrations of synthetic AIP; for effect on S. hominis agr-II fluorescent signal (in words): increasing doses of synthetic AIP, early signal
S. epidermidis agr-I = S. epidermidis agr-I (Staphylococcus epidermidis, UniProt O86861); test: S. epidermidis agr-I P3::sGFP reporter assay; type: cell-based
MRSA = settings: mouse model; cited from earlier work
[1] = system: S. hominis AH5009 AgrA-regulated genes; test: RNA-seq of apicidin-treated S. hominis agr-I; type: cell-based, Staphylococcus hominis
[2] = system: S. hominis AH5009 PSM-β1 production; test: Mass spectrometric detection of PSM-β1 in conditioned medium; type: cell-based, Staphylococcus hominis; settings: 100 μM apicidin or DMSO, 8 h; LC-MS; triplicate injections of biological triplicates
[3] = cognate AIP, fluorescence at 8 h
[4] = 100 μM apicidin vs DMSO, over 24 h
[5] = 100 μM apicidin vs DMSO, 4-fold cutoff, false discovery rate P value ≤0.05
[6] = RNA-seq, S. hominis AH5009, 100 μM apicidin vs DMSO, 8 h, biological triplicate
[7] = RNA-seq, S. hominis AH5009, 100 μM apicidin vs DMSO, 8 h, outside 4-fold cutoff

MRSA agr-II, sequence (O33587 entry or part of it): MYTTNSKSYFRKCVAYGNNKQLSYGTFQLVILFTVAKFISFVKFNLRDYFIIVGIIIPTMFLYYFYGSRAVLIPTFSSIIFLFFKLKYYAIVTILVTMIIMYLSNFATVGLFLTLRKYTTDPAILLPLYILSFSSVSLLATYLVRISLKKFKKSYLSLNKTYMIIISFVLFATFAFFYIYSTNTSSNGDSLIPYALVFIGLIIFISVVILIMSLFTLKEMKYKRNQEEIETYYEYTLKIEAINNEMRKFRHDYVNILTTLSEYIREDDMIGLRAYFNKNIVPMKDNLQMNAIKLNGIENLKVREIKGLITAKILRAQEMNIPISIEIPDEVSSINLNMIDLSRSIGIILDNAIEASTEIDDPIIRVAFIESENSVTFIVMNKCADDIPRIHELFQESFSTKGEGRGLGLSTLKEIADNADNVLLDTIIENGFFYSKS
MRSA agr-III, sequence (O33590 entry or part of it): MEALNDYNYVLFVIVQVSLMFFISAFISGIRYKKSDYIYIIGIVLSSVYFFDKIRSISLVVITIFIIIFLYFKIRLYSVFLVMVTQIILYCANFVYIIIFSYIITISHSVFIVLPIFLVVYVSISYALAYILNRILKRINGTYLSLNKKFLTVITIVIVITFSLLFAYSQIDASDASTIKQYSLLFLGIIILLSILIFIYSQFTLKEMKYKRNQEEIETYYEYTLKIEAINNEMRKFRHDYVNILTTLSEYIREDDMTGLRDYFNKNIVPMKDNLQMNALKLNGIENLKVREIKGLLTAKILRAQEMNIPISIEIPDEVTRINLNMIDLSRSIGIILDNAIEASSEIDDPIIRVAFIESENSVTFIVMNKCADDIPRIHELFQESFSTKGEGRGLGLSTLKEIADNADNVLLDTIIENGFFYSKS
MRSA agr-IV, sequence (Q309Z2 entry or part of it): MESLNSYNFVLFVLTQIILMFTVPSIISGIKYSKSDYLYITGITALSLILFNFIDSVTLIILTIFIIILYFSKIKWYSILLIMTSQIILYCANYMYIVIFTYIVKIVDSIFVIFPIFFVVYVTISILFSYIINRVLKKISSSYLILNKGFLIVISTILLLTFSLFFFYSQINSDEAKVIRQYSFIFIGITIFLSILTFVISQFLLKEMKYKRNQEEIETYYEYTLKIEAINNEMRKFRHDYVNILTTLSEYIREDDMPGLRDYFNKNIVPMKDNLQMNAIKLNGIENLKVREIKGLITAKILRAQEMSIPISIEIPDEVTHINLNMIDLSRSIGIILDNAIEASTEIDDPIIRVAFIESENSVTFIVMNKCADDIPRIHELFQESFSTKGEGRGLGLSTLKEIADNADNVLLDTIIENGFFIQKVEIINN
MRSA agr-I, sequence (O07911 entry or part of it): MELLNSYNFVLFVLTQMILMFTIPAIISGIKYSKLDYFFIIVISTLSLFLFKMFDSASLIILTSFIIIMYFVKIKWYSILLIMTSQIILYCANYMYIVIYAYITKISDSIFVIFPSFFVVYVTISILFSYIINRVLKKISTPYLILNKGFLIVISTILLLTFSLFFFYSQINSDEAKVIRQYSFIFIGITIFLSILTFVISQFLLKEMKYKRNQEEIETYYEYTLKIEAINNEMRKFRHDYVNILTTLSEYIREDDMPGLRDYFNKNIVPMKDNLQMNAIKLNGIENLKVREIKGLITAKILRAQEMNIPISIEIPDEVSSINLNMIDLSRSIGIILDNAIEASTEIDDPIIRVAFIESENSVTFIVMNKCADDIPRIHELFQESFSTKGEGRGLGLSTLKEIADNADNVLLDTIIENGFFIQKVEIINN
S. epidermidis agr-I, sequence (O86861 entry or part of it): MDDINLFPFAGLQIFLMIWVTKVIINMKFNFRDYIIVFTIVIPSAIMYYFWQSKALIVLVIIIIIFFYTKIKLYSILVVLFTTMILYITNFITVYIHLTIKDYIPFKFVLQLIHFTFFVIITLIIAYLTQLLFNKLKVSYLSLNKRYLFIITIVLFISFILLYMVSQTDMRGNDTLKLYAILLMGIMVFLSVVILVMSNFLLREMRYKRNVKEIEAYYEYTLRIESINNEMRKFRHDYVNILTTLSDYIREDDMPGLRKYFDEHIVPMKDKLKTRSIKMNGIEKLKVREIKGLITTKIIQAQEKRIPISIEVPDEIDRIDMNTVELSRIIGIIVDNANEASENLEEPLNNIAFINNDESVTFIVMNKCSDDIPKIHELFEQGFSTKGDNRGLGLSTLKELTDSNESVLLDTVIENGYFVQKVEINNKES

## C[C@@H]1NC(=O)[C@@H](NC(=O)[C@@H]2CCCN2C(=O)[C@H](CO)NC(=O)[C@H](Cc2ccc(O)cc2)NC(=O)[C@@H](N)CO)CSC(=O)[C@H](Cc2ccccc2)NC(=O)[C@H](Cc2ccc(O)cc2)NC(=O)[C@H]([C@@H](C)O)NC1=O [AIP-II] (H-SYSPCATYF; thioester 5-C; N-terminus assumed)
MRSA agr-III
  IC50: 3 nM
MRSA agr-IV
  IC50: 1130 nM
  inhibition of MRSA agr-IV by synthetic AIP (in words): poorly inhibited
MRSA strain LAC; 10 or 50 μg synthetic AIP-II with 1 × 10^8 CFU MRSA on gauze, 72 h topical, vs vehicle, n = 10 per group
  barrier function by transepithelial water loss (TEWL): retained more of their barrier function
MRSA strain LAC; 10 or 50 μg synthetic AIP-II, 72 h postinfection
  total CFU burden in epicutaneous lesions: no differences in CFU between groups
MRSA strain LAC; synthetic AIP-II-treated vs vehicle control mice, 72 hpi
  gross morphology of the skin: less redness, scaling, and erythema
S. hominis agr-I
  S. hominis agr-I reporter growth (OD600): no effect on reporter growth
S. hominis agr-I; read-out: IC50, inhibition of S. hominis agr-I signaling, noncognate synthetic AIP dose response, relative fluorescence at 8 h, three independent experiments pooled
  IC50: 9 nM
MRSA agr-II
  IC50: 2110 nM
USA300 MRSA (strain LAC)
  dermonecrotic lesion size: significantly smaller lesions
MRSA agr-I
  IC50: 15 nM
S. hominis agr-II; [3]
  concentration of synthetic AIP optimal to boost S. hominis agr-II fluorescent signal: 12.5 nM
S. hominis agr-II
  S. hominis agr-II reporter growth (OD600): no effect on growth

## CC[C@H](C)[C@H](NC(=O)[C@@H](N)[C@@H](C)O)C(=O)N[C@@H](CC(N)=O)C(=O)N[C@H](C(=O)N[C@H]1CSC(=O)[C@H](Cc2ccccc2)NC(=O)[C@H](Cc2ccc(O)cc2)NC(=O)CNC(=O)CNC1=O)[C@@H](C)O [AIP-IV] (H-TINTCGGYF; thioester 5-C; N-terminus assumed)
MRSA agr-III
  IC50: 37 nM
MRSA agr-IV
  inhibition of MRSA agr-IV by synthetic AIP (in words): not inhibited
S. hominis agr-I
  S. hominis agr-I reporter growth (OD600): did not impact the growth
  effect on S. hominis agr-I fluorescent signal (in words): slightly boosted early agr-I signaling
MRSA agr-II
  IC50: 140 nM
MRSA agr-I
  IC50: 128 nM
S. hominis agr-II
  S. hominis agr-II reporter growth (OD600): did not impact the growth
  effect on S. hominis agr-II fluorescent signal (in words): negligible effects on agr-II

## CC(C)[C@H](NC(=O)[C@H](CC(N)=O)NC(=O)[C@H](Cc1ccc(O)cc1)NC(=O)[C@@H](N)CO)C(=O)N[C@H]1CSC(=O)[C@H](Cc2ccccc2)NC(=O)[C@H](Cc2ccc(O)cc2)NC(=O)CNC(=O)CNC1=O [AIP-I] (H-SYNVCGGYF; thioester 5-C)
MRSA agr-IV
  inhibition of MRSA agr-IV by synthetic AIP (in words): poorly inhibited
S. hominis agr-I; [3]
  concentration of synthetic AIP that significantly boosted S. hominis agr-I fluorescent signal: ≥ 25 nM
S. hominis agr-I
  S. hominis agr-I reporter growth (OD600): no effect on growth
S. epidermidis agr-I; synthetic AIP dose response
  inhibition of S. epidermidis agr-I (in words): poor inhibitor
S. epidermidis agr-I; synthetic AIP, first 8 h of incubation
  S. epidermidis agr-I early fluorescent signal: boosted the fluorescent signal
S. hominis agr-II
  S. hominis agr-II reporter growth (OD600): no impact on reporter growth
S. hominis agr-II; read-out: IC50, inhibition of S. hominis agr-II fluorescent signaling, noncognate synthetic AIP dose response, relative fluorescence at 8 h, three independent experiments pooled
  IC50: 7 nM
MRSA
  MRSA-associated AD symptoms: effectively mitigates MRSA-associated AD symptoms

## CC(C)[C@H](NC(=O)[C@@H](NC(=O)[C@H](CCC(N)=O)NC(=O)[C@@H](N)CO)[C@@H](C)O)C(=O)N[C@H]1CSC(=O)[C@H](Cc2ccccc2)NC(=O)[C@H](Cc2ccc(O)cc2)NC(=O)CNC(=O)[C@H](CO)NC1=O [AIP-V] (H-SQTVCSGYF; thioester 5-C; N-terminus assumed)
MRSA agr-III
  IC50: 4 nM
MRSA agr-IV
  IC50: 3810 nM
  inhibition of MRSA agr-IV by synthetic AIP (in words): poorly inhibited
S. hominis agr-I
  S. hominis agr-I reporter growth (OD600): did not impact the growth
  effect on S. hominis agr-I fluorescent signal (in words): weak to negligible effects on agr-I
MRSA agr-II
  IC50: 59 nM
MRSA agr-I
  IC50: 43 nM
S. hominis agr-II
  S. hominis agr-II reporter growth (OD600): did not impact the growth
  effect on S. hominis agr-II fluorescent signal (in words): modestly inhibited agr-II

## CCC(=O)CCCCC[C@@H]1NC(=O)[C@H]2CCCCN2C(=O)[C@H]([C@@H](C)CC)NC(=O)[C@H](Cc2cn(OC)c3ccccc23)NC1=O [apicidin]
S. hominis agr-I; [4]
  S. hominis agr-I P3::sGFP growth (OD600): no effect on growth
  S. hominis agr-I signaling (P3::sGFP fluorescence): inhibited S. hominis agr-I signaling
[1]; [5]
  number of genes downregulated: 40 genes
  number of genes significantly upregulated: 7 genes
[1]; [6]
  Fold change, MOV58_00040 serine--tRNA ligase: -5.87 fold
  Fold change, MOV58_00405 arsenate reductase: -5.32 fold
  Fold change, MOV58_00410 anion permease: -4.39 fold
  Fold change, MOV58_00550 (S)-acetoin forming diacetyl reductase: -7.89 fold
  Fold change, MOV58_01010 acetoin reductase/dehydrogenase: -5.45 fold
  Fold change, MOV58_01015 yxel choloylglycine hydrolase family protein: -4.94 fold
  Fold change, MOV58_01105 excinuclease ABC subunit UvrA: 8.12 fold
  Fold change, MOV58_01110 arylamine N-acetyltransferase: 9.09 fold
  Fold change, MOV58_01115 ABC2 transporter permease: 9.05 fold
  Fold change, MOV58_01120 ABC transporter ATP binding protein btuD: 10.45 fold
  Fold change, MOV58_01125 DUF3169 family protein: 19.01 fold
  Fold change, MOV58_01130 helix turn helix transcriptional regulator: 18.5 fold
  Fold change, MOV58_02040 aldehyde dehydrogenase family protein: -4.94 fold
  Fold change, MOV58_05440 hypothetical protein: -5.09 fold
  Fold change, MOV58_05705 hypothetical protein: -4.08 fold
  Fold change, MOV58_05710 hypothetical protein: -6.86 fold
  Fold change, MOV58_05715 fructose-bisphosphatase class III: -6.94 fold
  Fold change, MOV58_05720 hypothetical protein: -5.64 fold
  Fold change, MOV58_05820 hypothetical protein: -9.59 fold
  Fold change, MOV58_06035 universal stress protein: -4.69 fold
  Fold change, MOV58_06695 RNA polymerase sigma factor RpoD: -10.14 fold
  Fold change, MOV58_07655 hypothetical protein: 4.07 fold
  Fold change, MOV58_07775 hypothetical protein: -4.58 fold
  Fold change, MOV58_07810 MerR family transcriptional regulator: -4.32 fold
  Fold change, MOV58_08480 beta class phenol soluble modulin: -11.36 fold
  Fold change, MOV58_08485 beta class phenol soluble modulin: -11.33 fold
  Fold change, MOV58_08490 beta class phenol soluble modulin: -9.37 fold
  Fold change, MOV58_08495 beta class phenol soluble modulin: -8.82 fold
  Fold change, MOV58_09035 hypothetical protein: -4.5 fold
  Fold change, MOV58_09040 IDEAL domain containing protein: -6.02 fold
  Fold change, MOV58_09615 Hypothetical protein: -4.82 fold
  Fold change, MOV58_09645 hypothetical protein: -5.25 fold
  Fold change, MOV58_09650 hypothetical protein: -5.02 fold
  Fold change, MOV58_09655 hypothetical protein: -4.73 fold
  Fold change, MOV58_09715 phosphoglycerate kinase: -6.94 fold
  Fold change, MOV58_09720 type I glyceraldehyde-3-phosphate dehydrogenase: -4.93 fold
  Fold change, MOV58_09725 CggR, central glycolytic genes regulator: -7.22 fold
  Fold change, MOV58_09730 hypothetical: -5.22 fold
  Fold change, MOV58_10080 fructose-specific PTS transporter subunit EIIC: -4.31 fold
  Fold change, MOV58_10085 1-phosphofruktokinase: -22.43 fold
  Fold change, MOV58_10090 DeoR/GlpR family DNA-binding transcription regulator: -27.93 fold
  Fold change, MOV58_10435 alpha/beta hydrolase: -6.85 fold
  Fold change, MOV58_10445 Hypothetical protein: -10.93 fold
  Fold change, MOV58_10515 flavodoxin family protein: -5.24 fold
  Fold change, MOV58_10990 Hypothetical protein: -4.65 fold
  Fold change, MOV58_11890 LytTR family DNA binding domain containing protein: -7.12 fold
  Fold change, MOV58_11895 DUF3021 domain-containing protein: -5.21 fold
[1]; [7]
  RNAIII expression, down -fold: 3.40 fold
  agrB expression, down -fold: 2.89 fold
  agrD expression, down -fold: 3.08 fold
[2]
  PSM-β1 presence in S. hominis cultures: present only in S. hominis cultures treated with DMSO, not in those treated with apicidin
